{"source": "patent US20100173972A1", "about": "“METHODS AND USES RELATED TO RHBDL4” (MEDICAL RESEARCH COUNCIL, priority 2007, published 2010)", "molecules": {"B1": {"name": "recombinant mouse TACE (R&D Systems) (protein)", "chain": "RAEPNPLKNTCKLLVVADHRFYKYMGRGEESTTTNYLIELIDRVDDIYRNTSWDNAGFKGYGVQIEQIRILKSPQEVKPGERHFNMAKSFPNEEKDAWDVKMLLEQFSFDIAEEASKVCLAHLFTYQDFDMGTLGLAYVGSPRANSHGGVCPKAYYNPTVKKNIYLNSGLTSTKNYGKTILTKEADLVTTHELGHNFGAEHDPDGLAECAPNEDQGGKYVMYPIAVSGDHENNKMFSNCSKQSIYKTIESKAQECFQERSNKVCGNSRVDEGEECDPGIMYLNNDTCCNSDCTLKPGVQCSDRNSPCCKNCQFETAQKKCQEAINATCKGVSYCTGNSSECPPPGDAEDDTVCLDLGKCKAGKCIPFCKREQELESCACVDTDNSCKVCCRNLSGPCVPYVDAEQKNLFLRKGKPCTVGFCDMNGKCEKRVQDVIERFWDFIDQLSINTFGKFLADN"}}, "key": {"[1]": {"tested_on": "TGFalpha release, HEK293T cells", "test": "Time course after PMA induction of HEK293T cells overexpressing pro-TGFalpha, with protease inhibitors", "type": "cell-based, human", "settings": "DCI 100 μM; HEK293T; Bcl-XL co-expressed", "description": "Cell culture and cell-based rhomboid cleavage assay. Cells were propagated in DMEM supplemented with 10% fetal calf serum. COS-7 cells were transfected in 35 mm wells with FuGENE 6 (Roche) as described (7). In brief, 250 ng plasmid encoding the substrate (as indicated in the description of the figures), 25 ng for the rhomboid tested, 50 ng for the GRP receptor and empty plasmid to bring the total DNA to 1 μg was used. For protease titration, 2.5 ng to 250 ng plasmid coding RHBDL4 was used. HeLa and HEK293T were transfected with polyethyleneimine (linear, MW 25000; Polysciences) as described (32) using twice the amount of DNA as used with FuGENE. Transfection efficiency was monitored by co-transfection of pEGFP (Invitrogen). Sixteen hours post transfection, medium was replaced with serum-free medium containing 10 μM BB94 (British Biotech) unless otherwise stated. For activation of endogenous rhomboid activity, phorbol 12-myristate 13-acetate (PMA) (1 μM, from Sigma) or bombesin (100 nM, from Sigma) was added to the cell medium. For inhibitor studies, the indicated protease inhibitors (from Calbiochem), diluted from a stock solution in DMSO, were compared with a carrier only. Medium was harvested typically after 24 to 30 hours; for inhibitor studies using 3,4-Dichloroisocoumarin (DCI) a time course with 0 minutes, 30 minutes and 4 hours was performed (FIG. 4C). Cells were solubilized in SDS-sample buffer and analyzed by SDS-PAGE. EndoH (New England Biolabs) and PNGaseF (New England Biolabs) treatment of SDS-solubilized cell extracts was performed according to the manufacturers instructions. Conditioned media were centrifuged for 10 minutes at full speed in a microfuge to remove cell debris, and subsequently proteins in the supernatant were precipitated by adding trichloroacetic acid (TCA) to 10%. The precipitate was recovered by centrifugation, washed with acetone and dissolved in SDS-PAGE sample buffer and analyzed by SDS-PAGE. Alternatively to TCA precipitation, TGFalpha-H8 in conditioned medium was captured by metal-chelate chromatography using Ni-NTA agarose beads (Qiagen) in the presence of 20 mM imidazole at pH 8.0. Subsequently beads were washed with 20 mM Tris-Cl pH 8.0, 50 mM imidazole, eluted with SDS-sample buffer and analyzed by SDS-PAGE and Western blotting (see below). Typically, from a 35 mm tissue culture dish, 10% of cell extracts and 20% of tissue culture supernatant were loaded. To increase the sensitivity, for experiments shown in FIGS. 1C, 3E, 4A and 4C, five times the amount of the media fractions were loaded.\nWestern blotting. Proteins were analyzed by 4-20% Tris-Glycine gradient gels (Invitrogen) followed by Western blot analysis using either anti FLAG M2-HRP (1:1000; Sigma), anti HA antibody 16B12 (1:1000; Covance), anti actin antibody ab8227 (1:5000; Abcam) or affinity purified polyclonal rabbit antibody anti RHBDL4 (1:4000; see above). In order to detect the 6 kDa form of TGFalpha, proteins were transferred on PVDF membrane with 0.2 μm pore size (Millipore) and probed with 1:100 anti TGFalpha antibody 134A-2B3 (Oncogene). For the detection of phosphorylated EGFR, PVDF membranes were blocked in 3% BSA in TBS-Tween supplemented with 200 μM NaVO3. Protein was detected with anti phospho-EGFR antibody 9H2 (1:2000, Upstate). […] Bound antibodies were detected by incubation with secondary antibody (Santa Cruz Biotechnology) followed by enhanced chemiluminescence (Amersham Biosciences)."}, "[2]": {"tested_on": "cells", "test": "Toxicity of DCI to cells during TGFalpha release experiment", "type": "cell-based", "settings": "over several hours, similar time course as TGFalpha release", "source_text": "A central prediction of our model is that the observed BB94-insensitive TGFalpha release would be inhibited by the serine protease inhibitor DCI, a rhomboid inhibitor. […] To help the cells survive, we expressed the antiapoptotic protein Bch XL. […] Overall, these experiments strongly support that EGFR transactivation is triggered by RHBDL4-catalysed shedding of pro-TGFalpha.\nCell culture and cell-based rhomboid cleavage assay. Cells were propagated in DMEM supplemented with 10% fetal calf serum. COS-7 cells were transfected in 35 mm wells with FuGENE 6 (Roche) as described (7). In brief, 250 ng plasmid encoding the substrate (as indicated in the description of the figures), 25 ng for the rhomboid tested, 50 ng for the GRP receptor and empty plasmid to bring the total DNA to 1 μg was used. For protease titration, 2.5 ng to 250 ng plasmid coding RHBDL4 was used. […] Transfection efficiency was monitored by co-transfection of pEGFP (Invitrogen). […] Cells were solubilized in SDS-sample buffer and analyzed by SDS-PAGE. […] The precipitate was recovered by centrifugation, washed with acetone and dissolved in SDS-PAGE sample buffer and analyzed by SDS-PAGE. […] Subsequently beads were washed with 20 mM Tris-Cl pH 8.0, 50 mM imidazole, eluted with SDS-sample buffer and analyzed by SDS-PAGE and Western blotting (see below). […]"}, "[3]": {"target": "T1, mouse RHBDL4 (Mus musculus, UniProt Q8BHC7)", "T1 sequence (Q8BHC7 1-315)": "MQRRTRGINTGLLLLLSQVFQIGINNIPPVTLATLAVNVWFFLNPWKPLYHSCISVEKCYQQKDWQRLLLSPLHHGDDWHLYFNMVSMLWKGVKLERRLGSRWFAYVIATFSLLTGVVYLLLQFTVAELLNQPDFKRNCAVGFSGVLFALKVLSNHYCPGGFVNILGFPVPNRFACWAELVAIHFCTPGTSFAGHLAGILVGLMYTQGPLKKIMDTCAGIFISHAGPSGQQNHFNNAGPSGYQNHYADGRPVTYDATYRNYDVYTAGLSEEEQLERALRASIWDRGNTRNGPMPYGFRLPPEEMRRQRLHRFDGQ", "test": "In vitro activity assay with recombinant mouse RHBDL4 (Gurken TMD substrate)", "type": "biochemical", "set-up": "His6 (C); made in house; host or cells: E. coli BL21-Gold(DE3) with pRARE2; Triton X-100 solubilised membrane fraction", "settings": "Triton-X 100 solubilised E. coli membrane fraction; also run with mouse RHBDL1 and human RHBDL2", "source_text": "To produce recombinant RHBDL4, a RHBDL4-purification tag fusion protein is expressed and solubilised with detergent appropriate for in vitro activity assay. In this example, C-terminally His6-tagged mouse RHBDL4 is expressed in E. coli BL21-Gold(DE3) cells harbouring the expression vector and the extra plasmid pRARE2 (Novagen) as described for human RHBDL2 (Lemberg, 2005, EMBO vol 24 pp 464-472).\nAfter the protein expression, cells are disrupted and membranes containing the recombinant RHBDL4 are harvested by centrifugation as had been described (Lemberg, 2005 above).\nSubsequently the recombinant protein is solubilised with the detergent Triton-X 100 and tested for activity.\nRadiolabelled substrate, such as the substrate TMD, is generated by cell-free in vitro translation using wheat germ extract and [35S]methionine as, had been described (Lemberg and Martoglio, 2003 Anal Biochem. vol 319 pp 327-31).\nIn this example a substrate corresponding to an N-terminal methionine plus residues 224 to 272 of Drosophila Gurken is used. […]\nFor the cleavage assay, 1-4 μl in vitro translation mix or 50-200 μg/ml recombinant substrate are added to a 40 μl-reaction containing recombinant RHBDL4 (e.g. about 1-5 μg) in 50 mM HEPES/NaOH, pH 7.4, 10% glycerol and 50 mM EDTA. Samples are incubated at 30° C. and subsequently the cleavage reaction is analyzed by SDS-PAGE as described (Lemberg, 2005 above). […]"}, "[4]": {"target": "RHBDL4-processed extracellular TGFalpha (post-translationally modified higher MW forms), P01135", "sequence (P01135 whole entry, looked up, tested part not stated)": "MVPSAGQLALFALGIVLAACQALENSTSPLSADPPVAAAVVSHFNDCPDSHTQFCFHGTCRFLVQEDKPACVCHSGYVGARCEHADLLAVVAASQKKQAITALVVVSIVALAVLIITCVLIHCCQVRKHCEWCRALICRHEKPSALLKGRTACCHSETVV"}}, "note": "“Also recorded” adds a separate entry of the source.", "data": [{"molecule": "O=c1oc(Cl)c(Cl)c2ccccc12", "note": "[DCI, 3,4-Dichloroisocoumarin]", "values": [{"measurement": "Release of the 37 kDa form of TGFalpha in response to PMA", "setting": "[1]", "value": "inhibited; also recorded: strong and specific inhibitory effect"}, {"measurement": "Toxicity to cells", "setting": "[2]", "value": "toxic to cells"}, {"measurement": "Cleavage of Drosophila Gurken TMD substrate", "setting": "[3]", "value": "inhibited"}]}, {"molecule": "B1", "values": [{"measurement": "in vitro TACE cleavage assay (Western blot)", "setting": "[4]", "value": "Recombinant TACE cleaved the post-translationally modified higher MW forms of TGFalpha. (filled triangles), generating the mature 6 kDa form"}]}]}
